According to patent US20030104507A1, “Method for detection of ATP” (priority 2001, published 2003):

Tested on: ATPase activity endogenous to L929 cell lysate
Test: Detergent inhibition of ATPase endogenous to L929 cell lysate (ATP remaining by luciferase luminescence, 22° C.)
Assay type: biochemical
Parameters: key to Relative ATPase Activity, slope det/slope lysate: slope with detergent / slope without; ≥1.0 = 100% activity, 0.5 = 50%
Conditions: for concentrations which resulted in a 25% or greater decrease in the relative ATPase activity: compared to reactions in the absence of detergent
Procedure, shortened: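 L929 lysate (1.5×10^5 cells/ml, four freeze–thaw cycles) held with detergent at final 1.0, 0.5, 0.1 or 0.05% at 22° C; remaining ATP read over time with luciferase-luciferin reagent (100 μM luciferin, 10 mM MgSO4, pH 7.5). Relative ATPase activity = slope of log % ATP remaining vs time with detergent ÷ slope for lysate-only control.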

[1] = Example 2, 0.02% detergent, 5 min
[2] = Example 2, 0.02% detergent, 75 min
[3] = Example 2, 0.02% detergent, 169 min
[4] = Example 2, 0.02% detergent, 222 min
[5] = Example 2, 0.02% detergent, 260 min

CCCCCCCCCCCC[N+](C)(C)CCCS(=O)(=O)[O-] [Sulfobetaine 3-10, N-Dodecyl-N,N-dimethyl-3-ammonio-1-propanesulfonate]
Relative ATPase Activity, slope det/slope lysate (0.02 percent detergent): 1.009 | Slope (log percent ATP remaining vs time in minutes) (0.02 percent detergent): −0.0064 | Average Relative Light Unit Values (0.05% detergent, 5 min): 6247.31 rlu | Percent ATP Remaining (0.05% detergent, 5 min): 100% | Average Relative Light Unit Values (0.05% detergent, 75 min): 2270.13 rlu | Percent ATP Remaining (0.05% detergent, 75 min): 36.3% | Average Relative Light Unit Values (0.05% detergent, 169 min): 1053.56 rlu | Percent ATP Remaining (0.05% detergent, 169 min): 16.9% | Average Relative Light Unit Values (0.05% detergent, 222 min): 465.03 rlu | Percent ATP Remaining (0.05% detergent, 222 min): 7.4% | Average Relative Light Unit Values (0.05% detergent, 260 min): 233.19 rlu | Percent ATP Remaining (0.05% detergent, 260 min): 3.7% | Relative ATPase Activity, slope det/slope lysate (0.05 percent detergent): 1.077 | Slope (log percent ATP remaining vs time in minutes) (0.05 percent detergent): −0.0057 | Average Relative Light Unit Values (0.1% detergent, 5 min): 6506.61 rlu | Percent ATP Remaining (0.1% detergent, 5 min): 100% | Average Relative Light Unit Values (0.1% detergent, 75 min): 2367.27 rlu | Percent ATP Remaining (0.1% detergent, 75 min): 36.4% | Average Relative Light Unit Values (0.1% detergent, 169 min): 1100.37 rlu | Percent ATP Remaining (0.1% detergent, 169 min): 16.9% | Average Relative Light Unit Values (0.1% detergent, 222 min): 446.29 rlu | Percent ATP Remaining (0.1% detergent, 222 min): 6.9% | Average Relative Light Unit Values (0.1% detergent, 260 min): 222.22 rlu | Percent ATP Remaining (0.1% detergent, 260 min): 3.4% | Relative ATPase Activity, slope det/slope lysate (0.10 percent detergent): 1.109 | Slope (log percent ATP remaining vs time in minutes) (0.10 percent detergent): −0.0058 | Average Relative Light Unit Values (0.5% detergent, 5 min): 6565.98 rlu | Percent ATP Remaining (0.5% detergent, 5 min): 100% | Average Relative Light Unit Values (0.5% detergent, 75 min): 2405.95 rlu | Percent ATP Remaining (0.5% detergent, 75 min): 36.6% | Average Relative Light Unit Values (0.5% detergent, 169 min): 1211.13 rlu | Percent ATP Remaining (0.5% detergent, 169 min): 18.4% | Average Relative Light Unit Values (0.5% detergent, 222 min): 609.75 rlu | Percent ATP Remaining (0.5% detergent, 222 min): 9.3% | Average Relative Light Unit Values (0.5% detergent, 260 min): 391.64 rlu | Percent ATP Remaining (0.5% detergent, 260 min): 6.0% | Relative ATPase Activity, slope det/slope lysate (0.50 percent detergent): 0.921 | Slope (log percent ATP remaining vs time in minutes) (0.50 percent detergent): −0.0049 | Average Relative Light Unit Values (1.0% detergent, 5 min): 7861.36 rlu | Percent ATP Remaining (1.0% detergent, 5 min): 100% | Average Relative Light Unit Values (1.0% detergent, 75 min): 5703.51 rlu | Percent ATP Remaining (1.0% detergent, 75 min): 72.6% | Average Relative Light Unit Values (1.0% detergent, 169 min): 4318.46 rlu | Percent ATP Remaining (1.0% detergent, 169 min): 54.9% | Average Relative Light Unit Values (1.0% detergent, 222 min): 3075.12 rlu | Percent ATP Remaining (1.0% detergent, 222 min): 39.1% | Average Relative Light Unit Values (1.0% detergent, 260 min): 2193.02 rlu | Percent ATP Remaining (1.0% detergent, 260 min): 27.9% | Relative ATPase Activity, slope det/slope lysate (1.00 percent detergent): 0.417 | Slope (log percent ATP remaining vs time in minutes) (1.00 percent detergent): −0.0022 | Average Relative Light Unit Values [1]: 6120.5 rlu | Percent ATP Remaining [1]: 100.00% | Average Relative Light Unit Values [2]: 1622.61 rlu | Percent ATP Remaining [2]: 26.51% | Average Relative Light Unit Values [3]: 291.09 rlu | Percent ATP Remaining [3]: 4.76% | Average Relative Light Unit Values [4]: 245.55 rlu | Percent ATP Remaining [4]: 4.01% | Average Relative Light Unit Values [5]: 136.43 rlu | Percent ATP Remaining [5]: 2.23% | concentrations which resulted in a 25% or greater decrease in the relative ATPase activity: ≥ 1%

CCCCCCCCCCCC[N+](C)(C)Cc1ccccc1.[Br-] [BDDABr, Benzyldimethyldodecylammonium bromide]
Relative ATPase Activity, slope det/slope lysate (0.02 percent detergent): 0.623 | Slope (log percent ATP remaining vs time in minutes) (0.02 percent detergent): −0.0039 | Average Relative Light Unit Values (0.05% detergent, 5 min): 7077.46 rlu | Percent ATP Remaining (0.05% detergent, 5 min): 100% | Average Relative Light Unit Values (0.05% detergent, 75 min): 4539.97 rlu | Percent ATP Remaining (0.05% detergent, 75 min): 64.1% | Average Relative Light Unit Values (0.05% detergent, 169 min): 2465.57 rlu | Percent ATP Remaining (0.05% detergent, 169 min): 34.8% | Average Relative Light Unit Values (0.05% detergent, 222 min): 1680.16 rlu | Percent ATP Remaining (0.05% detergent, 222 min): 23.7% | Average Relative Light Unit Values (0.05% detergent, 260 min): 1233.82 rlu | Percent ATP Remaining (0.05% detergent, 260 min): 17.4% | Relative ATPase Activity, slope det/slope lysate (0.05 percent detergent): 0.528 | Slope (log percent ATP remaining vs time in minutes) (0.05 percent detergent): −0.0030 | Average Relative Light Unit Values (0.1% detergent, 5 min): 7069.08 rlu | Percent ATP Remaining (0.1% detergent, 5 min): 100% | Average Relative Light Unit Values (0.1% detergent, 75 min): 5136.92 rlu | Percent ATP Remaining (0.1% detergent, 75 min): 72.7% | Average Relative Light Unit Values (0.1% detergent, 169 min): 3260.59 rlu | Percent ATP Remaining (0.1% detergent, 169 min): 46.1% | Average Relative Light Unit Values (0.1% detergent, 222 min): 2366.49 rlu | Percent ATP Remaining (0.1% detergent, 222 min): 33.5% | Average Relative Light Unit Values (0.1% detergent, 260 min): 1767.58 rlu | Percent ATP Remaining (0.1% detergent, 260 min): 25.0% | Relative ATPase Activity, slope det/slope lysate (0.10 percent detergent): 0.414 | Slope (log percent ATP remaining vs time in minutes) (0.10 percent detergent): −0.0023 | Average Relative Light Unit Values (0.5% detergent, 5 min): 122.47 rlu | Percent ATP Remaining (0.5% detergent, 5 min): 100% | Average Relative Light Unit Values (0.5% detergent, 75 min): 107.39 rlu | Percent ATP Remaining (0.5% detergent, 75 min): 87.7% | Average Relative Light Unit Values (0.5% detergent, 169 min): 93.92 rlu | Percent ATP Remaining (0.5% detergent, 169 min): 76.2% | Average Relative Light Unit Values (0.5% detergent, 222 min): 96.68 rlu | Percent ATP Remaining (0.5% detergent, 222 min): 78.9% | Average Relative Light Unit Values (0.5% detergent, 260 min): 101.11 rlu | Percent ATP Remaining (0.5% detergent, 260 min): 82.6% | Relative ATPase Activity, slope det/slope lysate (0.50 percent detergent): 0.064 | Slope (log percent ATP remaining vs time in minutes) (0.50 percent detergent): −0.0004 | Average Relative Light Unit Values (1.0% detergent, 5 min): 0.49 rlu | Average Relative Light Unit Values (1.0% detergent, 75 min): 0.51 rlu | Average Relative Light Unit Values (1.0% detergent, 169 min): 0.44 rlu | Average Relative Light Unit Values (1.0% detergent, 222 min): 0.42 rlu | Average Relative Light Unit Values (1.0% detergent, 260 min): 0.43 rlu | Average Relative Light Unit Values [1]: 6215.32 rlu | Percent ATP Remaining [1]: 100.00% | Average Relative Light Unit Values [2]: 2686.49 rlu | Percent ATP Remaining [2]: 48.53% | Average Relative Light Unit Values [3]: 962.85 rlu | Percent ATP Remaining [3]: 21.51% | Average Relative Light Unit Values [4]: 604.47 rlu | Percent ATP Remaining [4]: 13.18% | Average Relative Light Unit Values [5]: 429.86 rlu | Percent ATP Remaining [5]: 9.74%

C[C@H](CCC(=O)[O-])[C@H]1CC[C@H]2[C@@H]3CC[C@@H]4C[C@H](O)CC[C@]4(C)[C@H]3C[C@H](O)[C@]12C.[Na+] [Deoxycholate, sodium deoxycholate]
Relative ATPase Activity, slope det/slope lysate (0.02 percent detergent): 1.004 | Slope (log percent ATP remaining vs time in minutes) (0.02 percent detergent): −0.0064 | Average Relative Light Unit Values (0.05% detergent, 5 min): 5810.85 rlu | Percent ATP Remaining (0.05% detergent, 5 min): 100% | Average Relative Light Unit Values (0.05% detergent, 75 min): 1729.95 rlu | Percent ATP Remaining (0.05% detergent, 75 min): 29.8% | Average Relative Light Unit Values (0.05% detergent, 169 min): 738.1 rlu | Percent ATP Remaining (0.05% detergent, 169 min): 12.7% | Average Relative Light Unit Values (0.05% detergent, 222 min): 375.74 rlu | Percent ATP Remaining (0.05% detergent, 222 min): 6.5% | Average Relative Light Unit Values (0.05% detergent, 260 min): 188.59 rlu | Percent ATP Remaining (0.05% detergent, 260 min): 3.2% | Relative ATPase Activity, slope det/slope lysate (0.05 percent detergent): 0.984 | Slope (log percent ATP remaining vs time in minutes) (0.05 percent detergent): −0.0055 | Average Relative Light Unit Values (0.1% detergent, 5 min): 6422.34 rlu | Percent ATP Remaining (0.1% detergent, 5 min): 100% | Average Relative Light Unit Values (0.1% detergent, 75 min): 3730.44 rlu | Percent ATP Remaining (0.1% detergent, 75 min): 57.9% | Average Relative Light Unit Values (0.1% detergent, 169 min): 1627.81 rlu | Percent ATP Remaining (0.1% detergent, 169 min): 25.3% | Average Relative Light Unit Values (0.1% detergent, 222 min): 1028.42 rlu | Percent ATP Remaining (0.1% detergent, 222 min): 16.0% | Average Relative Light Unit Values (0.1% detergent, 260 min): 669.31 rlu | Percent ATP Remaining (0.1% detergent, 260 min): 10.4% | Relative ATPase Activity, slope det/slope lysate (0.10 percent detergent): 0.684 | Slope (log percent ATP remaining vs time in minutes) (0.10 percent detergent): −0.0038 | Average Relative Light Unit Values (0.5% detergent, 5 min): 3189.56 rlu | Percent ATP Remaining (0.5% detergent, 5 min): 100% | Average Relative Light Unit Values (0.5% detergent, 75 min): 2715.45 rlu | Percent ATP Remaining (0.5% detergent, 75 min): 85.1% | Average Relative Light Unit Values (0.5% detergent, 169 min): 2268.77 rlu | Percent ATP Remaining (0.5% detergent, 169 min): 71.1% | Average Relative Light Unit Values (0.5% detergent, 222 min): 2105.38 rlu | Percent ATP Remaining (0.5% detergent, 222 min): 66.0% | Average Relative Light Unit Values (0.5% detergent, 260 min): 1845.36 rlu | Percent ATP Remaining (0.5% detergent, 260 min): 57.9% | Relative ATPase Activity, slope det/slope lysate (0.50 percent detergent): 0.158 | Slope (log percent ATP remaining vs time in minutes) (0.50 percent detergent): −0.0009 | Average Relative Light Unit Values (1.0% detergent, 5 min): 3.98 rlu | Average Relative Light Unit Values (1.0% detergent, 75 min): 3.63 rlu | Average Relative Light Unit Values (1.0% detergent, 169 min): 3.63 rlu | Average Relative Light Unit Values (1.0% detergent, 222 min): 3.15 rlu | Average Relative Light Unit Values (1.0% detergent, 260 min): 3.24 rlu | Average Relative Light Unit Values [1]: 5962.61 rlu | Percent ATP Remaining [1]: 100.00% | Average Relative Light Unit Values [2]: 1694.47 rlu | Percent ATP Remaining [2]: 28.42% | Average Relative Light Unit Values [3]: 368.11 rlu | Percent ATP Remaining [3]: 6.17% | Average Relative Light Unit Values [4]: 241.05 rlu | Percent ATP Remaining [4]: 4.04% | Average Relative Light Unit Values [5]: 135.25 rlu | Percent ATP Remaining [5]: 2.27% | times more ATP present in the sample after four hours when the detergent was present than when it was absent (SDS 0.05%, deoxycholate 0.5% and 0.1%): about three to about twenty | concentrations which resulted in a 25% or greater decrease in the relative ATPase activity: ≥ 0.1%
